From patent US20250368666A1, “INDAZOLE COMPOUNDS” (TYRA BIOSCIENCES, INC., priority 2022, published 2025)
Where two headings read alike, the source gives them in different places.

Key:
FGFR1 = target: T1, FGFR1 (Homo sapiens, UniProt P11362); assay: Kinase binding assay (kinase-tagged T7 phage, affinity beads, qPCR), Kd; details: read-out: FGFR1 (Kd nM)
T1 construct: made in house; host or cells: E. coli (BL21-derived), T7 phage
Procedure, shortened: (§1)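 Readout was qPCR of kinase eluted from ligand-coated affinity beads after competition with test compound. Kinases were expressed as T7 phage fusions in E. coli. Binding constants were derived by non-linear least-squares Hill fitting, Hill slope −1.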

FGFR2 = target: T2, FGFR2 (Homo sapiens, UniProt P21802); assay: as above; details: read-out: FGFR2 (Kd nM)
T2 construct: made in house; host or cells: E. coli (BL21-derived), T7 phage
T2 sequence (P21802 22-821): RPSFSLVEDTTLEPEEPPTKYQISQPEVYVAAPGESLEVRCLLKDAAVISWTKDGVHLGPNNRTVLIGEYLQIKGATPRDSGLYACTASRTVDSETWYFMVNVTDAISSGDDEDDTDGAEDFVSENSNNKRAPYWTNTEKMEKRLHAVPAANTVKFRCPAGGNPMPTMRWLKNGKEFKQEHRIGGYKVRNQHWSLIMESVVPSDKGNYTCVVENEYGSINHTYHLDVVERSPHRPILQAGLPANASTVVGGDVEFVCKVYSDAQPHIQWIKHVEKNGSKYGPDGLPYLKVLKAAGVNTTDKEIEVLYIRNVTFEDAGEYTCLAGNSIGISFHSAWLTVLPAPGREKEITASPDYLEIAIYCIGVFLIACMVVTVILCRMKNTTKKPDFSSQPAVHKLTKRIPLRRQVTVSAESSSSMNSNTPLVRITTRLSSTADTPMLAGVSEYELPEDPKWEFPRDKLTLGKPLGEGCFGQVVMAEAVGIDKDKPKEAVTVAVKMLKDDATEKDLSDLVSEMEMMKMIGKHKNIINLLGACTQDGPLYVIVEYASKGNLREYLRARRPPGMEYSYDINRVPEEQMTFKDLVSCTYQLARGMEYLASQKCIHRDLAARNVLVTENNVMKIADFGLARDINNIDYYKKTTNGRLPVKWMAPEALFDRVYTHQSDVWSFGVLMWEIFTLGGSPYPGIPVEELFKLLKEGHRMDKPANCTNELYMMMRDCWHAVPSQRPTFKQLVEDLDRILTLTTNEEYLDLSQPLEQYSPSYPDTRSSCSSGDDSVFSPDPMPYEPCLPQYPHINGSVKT
Procedure, shortened: as §1

FGFR3 = target: T3, FGFR3 (Homo sapiens, UniProt P22607); assay: as above; details: read-out: FGFR3 (Kd nM)
T3 construct: made in house; host or cells: E. coli (BL21-derived), T7 phage
T3 sequence (P22607 23-806): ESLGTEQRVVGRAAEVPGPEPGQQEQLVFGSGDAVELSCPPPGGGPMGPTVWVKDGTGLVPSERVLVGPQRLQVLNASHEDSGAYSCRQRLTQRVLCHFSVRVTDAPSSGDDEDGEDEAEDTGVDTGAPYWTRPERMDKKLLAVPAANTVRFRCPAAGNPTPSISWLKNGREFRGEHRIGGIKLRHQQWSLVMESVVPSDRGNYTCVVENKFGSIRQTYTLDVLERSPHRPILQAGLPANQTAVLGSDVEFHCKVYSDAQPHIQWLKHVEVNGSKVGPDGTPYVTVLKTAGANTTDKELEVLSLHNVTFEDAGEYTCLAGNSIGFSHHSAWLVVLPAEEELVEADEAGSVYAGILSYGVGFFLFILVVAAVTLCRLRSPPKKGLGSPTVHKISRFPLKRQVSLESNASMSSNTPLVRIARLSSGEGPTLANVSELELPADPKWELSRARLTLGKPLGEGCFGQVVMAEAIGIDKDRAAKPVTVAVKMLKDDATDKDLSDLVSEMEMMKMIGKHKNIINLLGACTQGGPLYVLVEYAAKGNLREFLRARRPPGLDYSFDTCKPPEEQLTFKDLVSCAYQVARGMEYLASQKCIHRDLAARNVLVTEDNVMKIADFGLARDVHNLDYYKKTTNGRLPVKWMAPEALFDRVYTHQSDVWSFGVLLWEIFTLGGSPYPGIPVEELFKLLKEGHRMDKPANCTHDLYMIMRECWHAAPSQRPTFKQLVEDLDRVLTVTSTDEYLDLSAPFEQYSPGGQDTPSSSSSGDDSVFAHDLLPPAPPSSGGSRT
Procedure, shortened: as §1

FGFR4 = target: T4, FGFR4 (Homo sapiens, UniProt P22455); assay: as above; details: read-out: FGFR4 (Kd nM)
T4 construct: made in house; host or cells: E. coli (BL21-derived), T7 phage
T4 sequence (P22455 22-802): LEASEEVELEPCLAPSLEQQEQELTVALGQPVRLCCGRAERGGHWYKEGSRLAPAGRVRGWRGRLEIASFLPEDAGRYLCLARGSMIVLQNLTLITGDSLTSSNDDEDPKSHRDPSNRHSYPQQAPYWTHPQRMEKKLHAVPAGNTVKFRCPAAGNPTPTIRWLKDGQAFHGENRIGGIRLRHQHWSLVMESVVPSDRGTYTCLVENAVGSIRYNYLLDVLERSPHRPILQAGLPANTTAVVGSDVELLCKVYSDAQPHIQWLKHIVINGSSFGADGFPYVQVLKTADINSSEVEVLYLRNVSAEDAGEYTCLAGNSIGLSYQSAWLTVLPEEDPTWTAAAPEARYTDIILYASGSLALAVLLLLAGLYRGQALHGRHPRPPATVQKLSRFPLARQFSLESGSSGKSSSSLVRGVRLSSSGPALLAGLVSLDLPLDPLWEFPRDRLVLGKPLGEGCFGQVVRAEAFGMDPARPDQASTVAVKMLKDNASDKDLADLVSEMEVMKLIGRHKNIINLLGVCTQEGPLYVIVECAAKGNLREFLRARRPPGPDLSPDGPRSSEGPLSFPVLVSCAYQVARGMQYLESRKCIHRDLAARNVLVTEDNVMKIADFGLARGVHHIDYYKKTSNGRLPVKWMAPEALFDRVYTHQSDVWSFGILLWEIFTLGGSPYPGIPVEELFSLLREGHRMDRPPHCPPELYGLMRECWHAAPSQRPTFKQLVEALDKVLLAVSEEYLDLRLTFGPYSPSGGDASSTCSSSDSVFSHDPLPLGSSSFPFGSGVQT
Procedure, shortened: as §1

[1] = test system: HuH7 cell line (FGF19 amplification); assay: Cancer cell line cell viability assay (Cell Titer-Glo), 120 hr; type: cell-based; details: Homo sapiens, Huh-7
From the text: Experimental Purpose: To detect the change of intracellular ATP by Cell Titer-Glo® and to evaluate the inhibitory effect of the compounds on cancer cell lines by determining the in vitro IC50 value of the compounds.
Cell Titer-Glo® 2.0 Luminescent cell viability assay reagent was purchased from Promega (Madison, WI). KG-1, KATO-III, and MDA-MB-453 cell lines were purchased from American Type Culture Collection (Manassas, VA). RT112/84 cell line was purchased from Millipore-Sigma (St. Louis, MO). HuH7 cells were purchased from Seikisui Xenotech (Kansas City, KS). RT112/84 and MDA-MB-453 cells were cultured in RPMI1640 media supplemented with 10% fetal bovine serum. KG-1 and KATO-III cell lines were cultured in IMDM media supplemented with 20% FBS. HuH7 cells were cultured in IMDM media supplemented with 10% FBS. Cultures were maintained at 37° C. in a humidified atmosphere of 5% CO2 and 95% air.
Cell Viability Assay Procedure: Cells were plated in 96-well clear bottom/white plates (Corning #3903) at a range of densities depending on the optimal assay window (5,000-20,000 cells/well in […] of media), incubated overnight. The next day, test compound DMSO stock solutions were made at 10 mM and […] final concentration. Compounds were then added to cells in a 9-dose, 4-fold dilution series starting at 3 μM with an HP 300e Digital Dispenser (each dose was applied in triplicate). DMSO was backfilled to each well up to 301 nL total volume of test compound+DMSO, and a total of 301 nL DMSO was added to a control/no test compound well in triplicate. The cells in cell culture plates were incubated with the compounds at 37° C. and 5% CO2 for 72 hours-120 hours depending on the cell line. Then 50 μl of Cell Titer Glo 2.0 reagent was added to each well of the cell culture plates. The contents were covered from light and mixed on an orbital shaker at room temperature for minimum of 10 min. Luminescence was recorded by a Clariostar Plus Microplate Reader (BMG Labtech, Cary, NC). Cells were assessed as a percentage of DMSO only treated control cells. Curves were plotted and IC50 values were calculated using the GraphPad Prism 9 program based on a sigmoidal dose-response equation (log (inhibitor) vs. response—Variable slope, 4-parameter).

FGFR3 (V555M) = target: T5, FGFR3 (V555M) (Homo sapiens, UniProt P22607, V555M); assay: Kinase binding assay (kinase-tagged T7 phage, affinity beads, qPCR), Kd; details: V555M mutant; read-out: FGFR3 (V555M) (Kd nM)
T5 construct: made in house; host or cells: E. coli (BL21-derived), T7 phage
T5 sequence (P22607 23-806 V555M): as the sequence (P22607 23-806) above, with V533M counted along it
Procedure, shortened: as §1

[2] = test system: KATO-III cell line (FGFR2 amplification); assay: Cancer cell line cell viability assay (Cell Titer-Glo), 72 hr; type: cell-based; details: Homo sapiens, KATO III
Procedure, shortened: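 Following overnight attachment, each line receives compound in triplicate across nine 4-fold dilutions starting at 3 μM, with DMSO backfill for equal solvent. Luminescence after Cell Titer-Glo 2.0 addition gives percent viability versus DMSO control, fitted by 4-parameter logistic for IC50.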

[3] = test system: KG-1 cell line (FGFR 1-fusion); assay: as above; type: cell-based; details: Homo sapiens, KG-1, KG-1 cell line (FGFR1-fusion)
Procedure, shortened: (§2)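 Cells were seeded at 5,000–20,000 per well, then exposed to a 9-point, 4-fold dilution series from 3 μM top concentration in triplicate at 37° C. Exposure was 120 h for MDA-MB-453 and HuH7 and 72 h for KG-1 and RT112/84. Viability was read as ATP by Cell Titer-Glo 2.0, expressed as % of DMSO control, and fitted by 4-parameter IC50.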

[4] = test system: RT112/84 cell line (FGFR3-fusion); assay: as above; type: cell-based; details: Homo sapiens, RT112/84, RT112/84 cell line (FGFR3-fusion)
Procedure, shortened: as §2

[5] = kinase binding assay, 11-point 3-fold dilution series

T1 sequence (P11362 22-822): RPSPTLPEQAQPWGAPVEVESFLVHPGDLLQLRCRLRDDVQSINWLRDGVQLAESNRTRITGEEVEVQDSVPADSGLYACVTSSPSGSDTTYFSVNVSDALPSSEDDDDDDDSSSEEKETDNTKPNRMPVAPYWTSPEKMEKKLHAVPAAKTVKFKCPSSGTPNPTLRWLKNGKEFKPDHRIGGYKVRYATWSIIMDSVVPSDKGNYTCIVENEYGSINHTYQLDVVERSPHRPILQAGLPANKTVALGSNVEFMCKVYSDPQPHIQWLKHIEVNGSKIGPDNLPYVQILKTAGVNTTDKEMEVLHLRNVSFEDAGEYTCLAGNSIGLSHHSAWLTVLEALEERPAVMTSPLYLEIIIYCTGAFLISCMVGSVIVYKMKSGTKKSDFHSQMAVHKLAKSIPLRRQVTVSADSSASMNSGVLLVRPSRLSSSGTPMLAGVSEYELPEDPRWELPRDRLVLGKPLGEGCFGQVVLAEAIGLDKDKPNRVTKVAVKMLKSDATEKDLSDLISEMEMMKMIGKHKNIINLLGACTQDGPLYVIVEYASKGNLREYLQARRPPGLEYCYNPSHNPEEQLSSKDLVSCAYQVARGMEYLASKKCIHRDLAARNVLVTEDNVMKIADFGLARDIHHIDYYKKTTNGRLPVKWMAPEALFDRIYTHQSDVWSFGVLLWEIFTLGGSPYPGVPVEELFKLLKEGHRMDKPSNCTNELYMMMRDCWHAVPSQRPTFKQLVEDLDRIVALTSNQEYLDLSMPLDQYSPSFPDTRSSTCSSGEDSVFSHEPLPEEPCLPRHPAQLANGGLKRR

| Compound | Kd (FGFR1) | Kd (FGFR2) | Kd (FGFR3) | Kd (FGFR4) | IC50 [1] | Kd (FGFR1; [5]) | Kd (FGFR2; [5]) | Kd (FGFR3; [5]) | Kd (FGFR4; [5]) | Kd (FGFR3 (V555M)) | IC50 [2] | IC50 [3] | IC50 [4] |
| --- | --- | --- | --- | --- | --- | --- | --- | --- | --- | --- | --- | --- | --- |
| COc1cc2[nH]nc(-c3cc(C#N)c(N4CC(C)(NCC(C)C)C4)nn3)c2cc1O[C@H](C)c1c(Cl)cncc1Cl [Example 342, (R)-6-(5-(1-(3,5-dichloropyridin-4-yl)ethoxy)-6-methoxy-1H-indazol-3-yl)-3-(3-(isobutylamino)-3-methylazetidin-1-yl)pyridazine-4-carbonitrile] | 1 to 50 nM | 1 to 50 nM | 1 to 50 nM | 1 to 50 nM | 50 to 200 nM | – | – | – | – | – | – | – | – |
| COc1cc2[nH]nc(-c3cc(C#N)c(N4CC(C)(NCC5CC5)C4)nn3)c2cc1O[C@H](C)c1c(Cl)cncc1Cl [Example 347, (R)-3-(3-((cyclopropyl-methyl)amino)-3-methylazetidin-1-yl)-6-(5-(1-(3,5-dichloropyridin-4-yl)ethoxy)-6-methoxy-1H-indazol-3-yl)pyridazine-4-carbonitrile] | 1 to 50 nM | 1 to 50 nM | 1 to 50 nM | 1 to 50 nM | 0.1 to 50 nM | – | – | – | – | – | – | – | – |
| CCNC1(C)CN(c2ncc(-c3n[nH]c4ccc(O[C@H](C)c5c(Cl)cncc5Cl)cc34)cc2F)C1 [Example 149, 1-[5-[5-[(1R)-1-(3,5-dichloro-4-pyridyl)ethoxy]-1H-indazol-3-yl]-3-fluoro-2-pyridyl]-N-ethyl-3-methyl-azetidin-3-amine] | 1 to 50 nM | 1 to 50 nM | 1 to 50 nM | 1 to 50 nM | – | – | – | – | – | 1 to 50 nM | 0.1 to 50 nM | 0.1 to 50 nM | 0.1 to 50 nM |
| C[C@@H](Oc1ccc2[nH]nc(-c3cnc(N4CC(C)(N5C[C@H]6C[C@@H]5CO6)C4)c(F)c3)c2c1)c1c(Cl)cncc1Cl [Example 223, (1R,4R)-5-(1-(5-(5-((R)-1-(3,5-dichloropyridin-4-yl)ethoxy)-1H-indazol-3-yl)-3-fluoropyridin-2-yl)-3-methylazetidin-3-yl)-2-oxa-5-aza-bicyclo[2.2.1]hep-tane] | 1 to 50 nM | 1 to 50 nM | 1 to 50 nM | 1 to 50 nM | – | – | – | – | – | 1 to 50 nM | 0.1 to 50 nM | 50 to 200 nM | 0.1 to 50 nM |
| C[C@H](O)CNC1(C)CN(c2ccc(-c3n[nH]c4ccc(O[C@H](C)c5c(Cl)cncc5Cl)cc34)cn2)C1 [Example 90, (S)-1-((1-(5-(5-((R)-1-(3,5-dichloropyridin-4-yl)ethoxy)-1H-indazol-3-yl)pyridin-2-yl)-3-methylazetidin-3-yl)amino)propan-2-ol] | 1 to 50 nM | 1 to 50 nM | 1 to 50 nM | 1 to 50 nM | – | – | – | – | – | 1 to 50 nM | 0.1 to 50 nM | 0.1 to 50 nM | 0.1 to 50 nM |
| C[C@@H](Oc1ccc2[nH]nc(-c3ccc(N4CC(C)(NCC(C)(C)O)C4)nc3)c2c1)c1c(Cl)cncc1Cl [Example 115, (R)-1-((1-(5-(5-(1-(3,5-dichloropyridin-4-yl)ethoxy)-1H-indazol-3-yl)pyridin-2-yl)-3-methylazetidin-3-yl)amino)-2-methylpropan-2-ol] | 1 to 50 nM | 1 to 50 nM | 1 to 50 nM | 1 to 50 nM | – | – | – | – | – | 1 to 50 nM | 0.1 to 50 nM | 0.1 to 50 nM | 0.1 to 50 nM |

The remaining lines, values ahead:

| Kd (FGFR1) | Kd (FGFR2) | Kd (FGFR3) | Kd (FGFR4) | IC50 [1] | Kd (FGFR1; [5]) | Kd (FGFR2; [5]) | Kd (FGFR3; [5]) | Kd (FGFR4; [5]) | Kd (FGFR3 (V555M)) | IC50 [2] | IC50 [3] | IC50 [4] | Compound |
| --- | --- | --- | --- | --- | --- | --- | --- | --- | --- | --- | --- | --- | --- |
| 50 to 300 nM | 1 to 50 nM | 1 to 50 nM | 1 to 50 nM | 0.1 to 50 nM | – | – | – | – | – | – | – | – | COc1cc2[nH]nc(-c3cnc(N4CC(CC#N)(NCC5CC5)C4)c(C#N)c3)c2cc1O[C@H](C)c1c(Cl)cnc(C)c1Cl [Example 350, (R)-2-(3-(Cyanomethyl)-3-((cyclopropyl-methyl)ami-no)azetidin-1-yl)-5-(5-(1-(3,5-dichloro-2-methylpyridin-4-yl)ethoxy)-6-methoxy-1H-indazol-3-yl)nicotinonitrile] |
| – | – | – | – | 0.1 to 50 nM | 1 to 50 nM | 1 to 50 nM | 1 to 50 nM | 1 to 50 nM | – | – | – | – | COc1cc2[nH]nc(-c3cnc(N4CC[C@](C)(NCC5CC5)C4)c(C#N)c3)c2cc1O[C@H](C)c1c(Cl)cncc1Cl [Example 410, 2-((S)-3-((cyclopropyl-methyl)-amino)-3-methylpyrrolidin-1-yl)-5-(5-((R)-1-(3,5-dichloropyridin-4-yl)ethoxy)-6-methoxy-1H-indazol-3-yl)nicotinonitrile] |
| 1 to 50 nM | 1 to 50 nM | 1 to 50 nM | 1 to 50 nM | 0.1 to 50 nM | – | – | – | – | – | – | – | – | COc1cc2[nH]nc(-c3cnc(N4CC(N)(Cc5ccn(C)n5)C4)c(C#N)c3)c2cc1O[C@H](C)c1c(Cl)cncc1Cl [Example 366, (R)-2-(3-amino-3-((1-methyl-1H-pyrazol-3-yl)methyl)azetidin-1-yl)-5-(5-(1-(3,5-dichloropyridin-4-yl)ethoxy)-6-methoxy-1H-indazol-3-yl)nicotinonitrile] |
| 1 to 50 nM | 1 to 50 nM | 1 to 50 nM | 1 to 50 nM | 0.1 to 50 nM | – | – | – | – | – | – | – | – | COc1cc2[nH]nc(-c3cnc(N4CCC(C)(N)CC4)c(C#N)c3)c2cc1O[C@H](C)c1c(Cl)cncc1Cl [Example 368, (R)-2-(4-amino-4-methylpiperidin-1-yl)-5-(5-(1-(3,5-dichloropyridin-4-yl)ethoxy)-6-methoxy-1H-indazol-3-yl)nicotinonitrile] |
| 1 to 50 nM | 1 to 50 nM | 1 to 50 nM | 1 to 50 nM | 0.1 to 50 nM | – | – | – | – | – | – | – | – | COc1cc2[nH]nc(-c3cc(C#N)c(N4CC(C)(N(C)C)C4)nn3)c2cc1O[C@H](C)c1c(Cl)cncc1Cl [Example 349, (R)-6-(5-(1-(3,5-dichloropyridin-4-yl)ethoxy)-6-methoxy-1H-indazol-3-yl)-3-(3-(dimethylamino)-3-methylazetidin-1-yl)pyridazine-4-carbonitrile] |
| 1 to 50 nM | 50 to 300 nM | 1 to 50 nM | 1 to 50 nM | 50 to 200 nM | – | – | – | – | – | – | – | – | COc1cc2[nH]nc(-c3cnc(N4CC(C)(NCC(C)C)C4)c(C#N)c3)c2cc1O[C@H](C)c1c(Cl)cnc(C)c1Cl [Example 355, 5-[5-[(1R)-1-(3,5-dichloro-2-methyl-4-pyridyl)ethoxy]-6-methoxy-1H-indazol-3-yl]-2-[3-(isobutylamino)-3-methyl-azetidin-1-yl]pyridine-3-carbonitrile] |
| – | – | – | – | 0.1 to 50 nM | – | – | – | – | – | – | – | – | COc1cc2[nH]nc(-c3cnc(N4CCC(C)(NCC5CC5)CC4)c(C#N)c3)c2cc1O[C@H](C)c1c(Cl)cncc1Cl [Example 411, (R)-2-(4-((cyclo-propylmethyl)amino)-4-methylpiperidin-1-yl)-5-(5-(1-(3,5-dichloropyridin-4-yl)ethoxy)-6-methoxy-1H-indazol-3-yl)nicotinonitrile] |
| 1 to 50 nM | 1 to 50 nM | 1 to 50 nM | 1 to 50 nM | 0.1 to 50 nM | – | – | – | – | – | – | – | – | COc1cc2[nH]nc(-c3cnc(N4CC(C)(O)C4)c(C#N)c3)c2cc1O[C@H](C)c1c(Cl)cncc1Cl [Example 370, 5-[5-[(1R)-1-(3,5-dichloro-4-pyridyl)ethoxy]-6-methoxy-1H-indazol-3-yl]-2-(3-hydroxy-3-methyl-azetidin-1-yl)pyridine-3-carbonitrile] |
